The source of these data is article PMC12176268, “Structural Features and Photophysical and Antiproliferative Properties of Me2N‑pbt-Cycloplatinated Complexes with Picolinate Ligands” (Inorganic Chemistry, 2025).

The nature of series [1]: Catalytic oxidation and photooxidation of NADH monitored by 1H NMR. The format is biochemical. The source says: NADH is a key coenzyme involved in many biocatalyzed redox reactions in living cells, and the adequate redox balance of the NADH/NAD^+ redox couple is an important indicator of the metabolic state of the cell. Indeed, the overall in-cell NADH level is higher in cancerous cells than in normal cells to ensure high cell proliferation. Therefore, any selective catalysis of intracellular NADH oxidation to NAD^+ by a metal complex in cancer cells can disrupt its intracellular redox balance, causing cell death. , The catalytic oxidation and photooxidation of NADH (2.8 mM) by 3 (0.8 mM) in DMSO/D2O (5/95 v/v) was monitored by ^1H NMR spectroscopy at 298 K (Figure S34). In the dark (NADH + 3 + dark), a new set of characteristic peaks at 9.33, 9.17, 8.81, 8.48, 8.43, 8.20, 8.16, 6.04, and 5.97 ppm, ascribed to the protons of NAD^+ (∼8%), were detected after 72 h. Light irradiation greatly accelerates the oxidation process. In fact, ∼33% of NADH was oxidized to NAD^+ after irradiation (460 nm, 2 h), with an oxidation turnover number (TON) of 1.4 after 2 h (TOF 0.7 h^–1). […] It should be noted that platinum(II) complexes showing biocatalytic activity on the NADH/NAD^+ redox couple are very scarce.
The time dependence of the catalytic oxidation and photooxidation of complex 3 (0.8 mM) with NADH (2.8 mM) in DMSO/D2O (5/95 v/v) was studied for 72 h in the dark or 2h with light irradiation (λexc = 460 nm) by ^1H NMR at 298 K. The conversion of NADH to NAD^+ was approximately calculated from the NMR data.

Series [2] in a line: Singlet oxygen generation, NIR emission at 1274 nm versus phenalenone. Format: physicochemical. Conditions: aerated acetonitrile 5 × 10^–5 M, 298 K, excitation 365 nm, reference phenalenone. The procedure:
In aerated DMSO solutions, complexes 1–3 display a fluorescence band only at ca 510 nm, attributed to ^1LL′CT/^1ILCT, due to easy quenching of the phosphorescence by oxygen. However, upon prolonged photoexcitation at 365 nm, a continuous enhancement of the phosphorescence band is observed. Simply irradiating with a hand UV–vis lamp, the initial blue-green emission gradually shifts to the orange enhanced emission. The phosphorescence increases its maximum intensity in ca 15 1, 8 2, or 12 min 3 (Figures and S23). […] This relatively rare behavior has been previously observed by us , and other groups, and is explained by the occurrence of a local sensitization caused by energy transfer from the low-energy triplet to ^3O2-producing singlet ^1O2, which is able to selectively react with the solvent creating a free oxygen microenvironment that switches-on a phosphorescence band due to ^3ILCT at 580 nm. The strong sensitivity of the phosphorescence emission in these complexes encourages us to determine their efficiency as ^1O2 sensitizers. The singlet oxygen generation of complexes 1–3 was examined in acetonitrile solution (5 × 10^–5 M) using a near-infrared detector upon excitation at 365 nm, detecting the characteristic emission profile of ^1O2 at λem ∼ 1274 nm (Figure ).

“[Pt(Me2N-pbt)(3-OH-pic-κN,O)] [Complex 3]” came in with a TOF in series [1] (460 nm irradiation, 2 h) of 0.7 h^–1. Further, in series [1] (460 nm irradiation, after 2 h), the “oxidation turnover number (TON)” value is recorded as 1.4. Moreover, in series [1] (NADH 2.8 mM, complex 0.8 mM, DMSO/D2O 5/95, 298 K, 460 nm, 2 h), the “NADH oxidized to NAD+ after irradiation” value is listed as about 33%. In addition, in series [1] (NADH 2.8 mM, complex 0.8 mM, DMSO/D2O 5/95, 298 K, dark, 72 h), the “NAD+ formed from NADH in the dark” value is reported as about 8%. Besides, the “quantum yield (ϕΔ) of 1O2” value in series [2] was 16.2%.
